# According to PubChem BioAssay AID712 (Emory University Molecular Libraries Screening Center, 2007):
# pIC50: −log10 of the molar value. Active and inactive are the calls of the source. No rule for the calls is given here.
# Target: Heat shock protein HSP 90-alpha (Homo sapiens) (UniProt P07900)
# Test: tumor Hsp90 inhibitor potency, dose response (AID 712)
# Conditions: Hsp90 inhibition assay
SMILES,IC50,pIC50
COc1cc(NCCCC(C)=O)c2nccc(Cl)c2c1,> 50 µM (inactive),
CCC(C)NCCNc1cc(OC)cc2cccnc12 (stereo not given),,5.51
NNc1ccc2c(Cl)cc(Cl)c(O)c2n1,> 50 µM (inactive),
O=C1c2ccccc2C(O)(O)C1(O)C1(O)C(=O)c2ccccc2C1(O)O (stereo not given),,5.30
COc1cc(N)c2nccc(Cl)c2c1,> 50 µM (inactive),
CCn1c(CSc2nnc3ccccn23)nc2cc(C(=O)O)ccc21,,5.95
CC(C)NCCCC(C)Nc1cc(O)cc2cccnc12 (stereo not given),,5.81
CC(=O)Nc1cnc2ccccc2n1,inactive,
O=[N+]([O-])c1ccc(O)c2cccnc12,> 50 µM (inactive),
Oc1cc(O)c2ncccc2c1,> 50 µM (inactive),
CCn1c(CSc2nccn2C)nc2cc(C(=O)O)ccc21,,4.87
Nc1cc2c(c(O)c1O)C(=O)c1ccccc1C2=O,,> 5.81
OCCN(CCO)c1nc(N2CCCCC2)c2nc(N(CCO)CCO)nc(N3CCCCC3)c2n1,,4.68
CCOC(=O)c1cnc(SC2CCc3ccccc3C2=O)nc1N (stereo not given),,4.82
CCc1ccc(-c2nnn(CCC(=O)OC)n2)cc1,> 50 µM (inactive),
CCOc1cc(N2CCOCC2)c(OCC)cc1NC1=NCCCCC1,,4.89
Oc1c(Cl)cc(Cl)c2cccnc12,> 50 µM (inactive),

# Other lines, results leading:
IC50,pIC50,SMILES
,5.58,CC(Cc1ccc(O)c(O)c1)C(C)Cc1ccc(O)c(O)c1 (stereo not given)
> 50 µM (inactive),,CCCc1cc2c(cc1NS(=O)(=O)c1ccc(CCNC(C)=O)cc1)OCO2
> 50 µM (inactive),,CC(=O)c1ccc(NC(=O)CSc2nnc(Cc3cccn3C)n2-c2ccc(F)cc2)cc1
> 50 µM (inactive),,COc1ccc(-n2nc3c(c2NC(=O)c2ccc(Br)cc2)CS(=O)C3)cc1 (stereo not given)
,4.60,O=[N+]([O-])c1cc(S(=O)(=O)Nc2ccc(F)c(-c3c(O)ccc4c3OCO4)c2)ccc1Cl
> 50 µM (inactive),,O=C(COc1ccccc1Cl)c1ccc(O)cc1O
,5.10,CCOc1ccc(NCC(=O)Nc2ccc(C)cc2C)cc1
,5.24,O=C1NCCCC2c3cc(O)c4ccccc4c3OC12N1CCCCC1 (stereo not given)
> 50 µM (inactive),,O=C(NCc1cccnc1)C1c2ccccc2C(=O)N1Cc1ccco1 (stereo not given)
,4.92,Cc1ccc(S(=O)(=O)N2CCC(C(=O)N[C@@H](C)C(=O)Nc3ccc4c(c3)OCO4)CC2)cc1
> 50 µM (inactive),,CCc1cc(C(=O)Cn2cnc3ccccc32)c(O)cc1O
> 50 µM (inactive),,COc1ccc(S(=O)(=O)N(C)CC(=O)N2CCC(C(N)=O)CC2)cc1Cl
,4.69,Cc1c(N=c2c(=O)c3ccccc3c2=O)c(=O)n(-c2ccccc2)n1C
